Reference: patent publication US8969554B2, “6-acyl-1,2,4-triazine-3,5-dione derivative and herbicides” (Kumiai Chemical Industry Co., Ltd., priority 2010, dated 2015)

Columns and labels:
Type in all cases: in vivo
Setaria viridis = test: Herbicidal activity by field foliage treatment (Test example 3); details: 1000 g effective component per hectare, day 14 after the treatment;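 further: index 0 to 10 in 10% steps of herbicidal effect with 10 meaning complete death and 0 below 10%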
How it was run: (§1)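 Herbicidal effect was rated on day 14 following a foliar spray of 1000 g active ingredient per hectare, applied as water-diluted wettable powder at 1000 L/ha. Plants had been raised for 2 weeks in field soil under greenhouse conditions before spraying.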

foxtail = test: Herbicidal activity by field soil treatment (Test example 2); details: 1000 g effective component per hectare, day 21 after the treatment;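 further: index 0 to 10 in 10% steps of herbicidal effect with 10 meaning complete death and 0 below 10%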
Method: [table] Test for Determining Herbicidal Activity by Field Soil Treatment A 80 cm^2 wide plastic pot was filled with a field soil and seeds of each of Echinochloa crus-galli, foxtail, Indian millet, and A. retroflexus were sowed and then covered with soil. The wettable powder produced with reference to the Formulation example 1 was diluted water, and applied on the soil surface by using a small sprayer in an amount of 1000 liters per hectare so that the effective component is 1000 g per hectare. After that, the plants were cultivated in a greenhouse, and on day 21 after the treatment, evaluation was made by the criteria described in Table 72 for determining the herbicidal effects.

Echinochloa crus-galli [1] = test: as above; design: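 index 0 to 10 in 10% steps of herbicidal effect with 10 meaning complete death and 0 below 10%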; details: 1000 g effective component per hectare, day 21 after the treatment
How it was run: (§2)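 Pre-emergence soil spray: wettable-powder formulation in water at 1000 g active ingredient per hectare (1000 L/ha) onto freshly sown, soil-covered seeds in field soil. Scoring of herbicidal effect by defined criteria 21 days post-treatment, plants kept in a greenhouse.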

A. retroflexus [2] = test: as above; design: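 index 0 to 10 in 10% steps of herbicidal effect with 10 meaning complete death and 0 below 10%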; details: 1000 g effective component per hectare, day 21 after the treatment
How it was run: as §2

Indian millet [3] = test: as above; design: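 index 0 to 10 in 10% steps of herbicidal effect with 10 meaning complete death and 0 below 10%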; details: 1000 g effective component per hectare, day 21 after the treatment
How it was run: as §2

Echinochloa crus-galli [4] = test: Herbicidal activity by field foliage treatment (Test example 3); design: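 index 0 to 10 in 10% steps of herbicidal effect with 10 meaning complete death and 0 below 10%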; details: 1000 g effective component per hectare, day 14 after the treatment
How it was run: as §1

Scirpus juncoides Rocxb. = test: Herbicidal activity by paddy field soil treatment (Test Example 1); design: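 index 0 to 10 in 10% steps of herbicidal effect with 10 meaning complete death and 0 below 10%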; details: applied on water surface, 1000 g of effective component per hectare, day 21 after the treatment
How it was run: (§3)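 Pre-emergence water-surface application one day after sowing into flooded (3 cm) paddy soil, dose 1000 g effective component per hectare from a diluted wettable powder. Plants kept in greenhouse and rated for herbicidal effect 21 days post-treatment.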

Echinochloa oryzicola = test: as above; design: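 index 0 to 10 in 10% steps of herbicidal effect with 10 meaning complete death and 0 below 10%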; details: 1000 g of effective component per hectare, evaluated on day 21 after the treatment, criteria of Table 72
How it was run: as §3

Monochoria vaginalis = test: as above; design: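 index 0 to 10 in 10% steps of herbicidal effect with 10 meaning complete death and 0 below 10%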; details: 1000 g of effective component per hectare, evaluated on day 21 after the treatment, criteria of Table 72
How it was run: as §3

A. retroflexus [5] = test: Herbicidal activity by field foliage treatment (Test example 3); design: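 index 0 to 10 in 10% steps of herbicidal effect with 10 meaning complete death and 0 below 10%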; details: 1000 g effective component per hectare, day 14 after the treatment
How it was run: (§4)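 Scoring of herbicidal effect by set criteria took place 14 days post-spray. Plants had been raised 2 weeks in field soil under glass before whole-plant foliar application of diluted wettable powder (1000 g active component/ha, spray volume 1000 L/ha).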

Indian millet [6] = test: as above; design: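 index 0 to 10 in 10% steps of herbicidal effect with 10 meaning complete death and 0 below 10%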; details: 1000 g effective component per hectare, day 14 after the treatment
How it was run: as §4

Compound	herbicidal effect index, Setaria viridis (Setaria viridis)	herbicidal effect index, Setaria viridis (foxtail)	herbicidal effect index, Echinochloa crus-galli (Echinochloa crus-galli [1])	herbicidal effect index, Amaranthus retroflexus (A. retroflexus [2])	herbicidal effect index, Abutilon theophrasti (Indian millet [3])	herbicidal effect index, Echinochloa crus-galli (Echinochloa crus-galli [4])	herbicidal effect index, S. juncoides Rocxb. (Scirpus juncoides Rocxb.)	Herbicidal effects index number, Echinochloa oryzicola (Echinochloa oryzicola)	Herbicidal effects index number, Monochoria vaginalis (Monochoria vaginalis)	herbicidal effect index, Amaranthus retroflexus (A. retroflexus [5])	herbicidal effect index, Abutilon theophrasti (Indian millet [6])
Cn1nc(C(=O)C2=C(O)CCCC2=O)c(=O)n(C)c1=O [I-1]	8	7	8	10	9	8	10	10	10	10	9
CCn1c(=O)c(C(=O)C2=C(O)CCCC2=O)nn(C)c1=O [I-2]	10	7	10	10	10	9	10	10	10	10	10
CCCn1c(=O)c(C(=O)C2=C(O)CCCC2=O)nn(C)c1=O [I-3]	9	10	10	10	10	9	10	10	10	9	9
CC(C)n1c(=O)c(C(=O)C2=C(O)CCCC2=O)nn(C)c1=O [I-4]	9	9	9	10	9	9	10	9	9	9	9
CCCCn1c(=O)c(C(=O)C2=C(O)CCCC2=O)nn(C)c1=O [I-5]	10	7	10	10	10	10	10	10	10	10	10
Cn1nc(C(=O)C2=C(O)CCCC2=O)c(=O)n(CC(F)(F)F)c1=O [I-10]	7	10	10	10	10	8	10	10	10	10	9
Cc1cncc(-n2c(=O)c(C(=O)C3=C(O)CCCC3=O)nn(C)c2=O)c1 [I-278]	10	9	9	10	–	10	10	8	9	10	9
